Assay results taken from patent US20230227838A1, “ENHANCED CELL SURVIVAL AGAINST BIOTIC AND ABIOTIC STRESSES THROUGH SALICYLICK ACID-INDUCED NPR1 CONDENSATES” (priority 2020, published 2023).

Tests used:
ETI activated by RPS4 = experiment: Cell death after Pf Pf0-1/AvrRps4 inoculation (conductivity assay); assay type: in vivo, Arabidopsis thaliana; conditions: SA/NPR1-mediated
From the text: (§1) Chemical treatment, pathogen infection and cell death assays. […] At 2 days, the bacterial colonies were scored.

[1] = tested on: Psm ES4326/AvrRpt2-mediated cell death; experiment: Cell death (conductivity/electrolyte leakage, trypan blue) after Psm ES4326/AvrRpt2 inoculation; assay type: in vivo, Arabidopsis thaliana; conditions: SA pretreatment at 0.5 and 1 mM; WT plants, not in npr1-2 mutant
Protocol: as §1
Trypan blue staining. Leaves of three-week-old Arabidopsis infected with Psm ES4326/AvrRpt2 were sampled at 1 dpi, boiled in 95% ethanol until completely bleached, followed by boiling for 3 min in a 1:1 mixture of 95% ethanol and staining solution (10 ml lactic acid, 10 ml glycerol, 10 g phenol and 10 mg trypan blue, dissolved in 10 ml DDW). The leaves were then de-stained in 2.5 g/ml chloral hydrate solution and transferred to 70% glycerol for subsequent imaging.

CUL3 = experiment: Pull-down of Myc-CUL3 with GST-fused NPR1 or variants co-expressed in E. coli; assay type: binding, Arabidopsis thaliana
From the text: Plasmid construction and E. coli-based ubiquitination: The coding sequences for all Arabidopsis genes were amplified from cDNA. Point mutations of AtNPR1 (AT1G64280) were generated using the QuikChange II site-directed mutagenesis kit (Agilent). Overlap PCR was used to generate the deletion/truncation mutations of AtCUL3A (AT1G26830) and AtNPR1. The WT and mutated coding sequences for all genes and gene fusions were sub-cloned into the pDONR207 gateway donor vector and confirmed by sequencing. The obtained entry vectors were recombined into either plant or E. coli destination vectors without or with an N- or C-terminal tag. For in planta expression, genes were recombined into the plant binary vectors pK7FWG2, pSITE-4NB and pLN462 to generate C-terminal eGFP, mCherry and HA fusions, respectively; into pK7WGF2, pEG201, pEG202, pEG203 and pEG204 to generate N-terminal eGFP, HA, FLAG, Myc and V5 fusions, respectively. […] For bimolecular fluorescence complementation (BiFC), entry vectors carrying the coding sequences of genes and their mutant variants were recombined into the pSITE-cEYFP-N1 binary vector for C-terminal fusion with the cYFP half (YC), or into the pSITE-nEYFP-C1 for N-terminal fusion with the nYFP half (YN). […]

Molecule: O=C(O)c1ccccc1O [SA, salicylic acid]
- ETI activated by RPS4 (effector AvrRps4) (ETI activated by RPS4): inhibition
- Psm ES4326/AvrRpt2-mediated cell death [1]: fully suppress

Molecule: NPR1: wild-type Arabidopsis thaliana NPR1 protein, positive regulator of systemic acquired resistance
- interaction with CUL3 when co-expressed in E. coli (CUL3): could be easily observed
